According to patent publication US5391569A, “New chromene compounds having a triene side chain” (Adir et Compagnie, priority 1992, dated 1995):
pIC50: −log10 of the molar value. Like-named read-outs stand apart in the source and are kept apart here.

Experiments:
[1] = target: porcine pancreatic phospholipase A2 (PLA2) (Sus scrofa, UniProt P00592); test: Inhibition of liberation of tritiated oleic acid from Escherichia coli membranes by porcine pancreatic phospholipase A2; format: biochemical; conditions: Test on Escherichia coli membranes
porcine pancreatic phospholipase A2 (PLA2), sequence (P00592 23-146): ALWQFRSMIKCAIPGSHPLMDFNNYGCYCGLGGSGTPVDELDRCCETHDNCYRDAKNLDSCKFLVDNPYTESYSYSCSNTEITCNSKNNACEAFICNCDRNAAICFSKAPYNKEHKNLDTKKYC
Text: The compounds of the present invention have an inhibiting activity on the liberation of tritiated oleic acid previously incorporated into Escherichia coli membranes under the effect of porcine pancreatic phospholipase A2 (PLA2) according to the technique described by Frason, Patriarca and Elsbach (J. Lipid. Res., 15, (1974), 380-388).

[2] = tested on: endogenous membrane PLA2; test: Inhibition of liberation of arachidonic acid from isolated rat polymorphonuclears stimulated by ionophore; format: cell-based; conditions: Test on rat PMNs; ionophore stimulation
Experimental: In a cell model involving endogenous membrane PLA2, the compounds of the invention also exerted an inhibiting effect on the liberation of arachidonic acid by their action on isolated rat polymorphonuclears (PLN), the membrane phospholipids of which had been labelled with tritiated arachidonic acid. The degree of activity of the compounds of the invention is assessed by measuring the radioactivity liberated after stimulation by ionophore […] according to the technique described by Sakson, Raz, Denny, Wyche and Needleman (Prostaglandins, 14, (1977), 853, sqq.).

[3] = tested on: mouse calvaria; test: Anti-bone resorption-1: inhibition of hyper-resorption in mouse calvaria (in vitro); format: cell-based; conditions: for inhibition at 10 µM / inhibition at 50 µM: hyper-resorption induced by 5×10^-8 M retinoic acid; for inhibition at 7.5 µM: 7,5 μM
[4] = tested on: mice in which a state of hyper-resorption had been induced by a calcium-deficient diet; test: Anti-bone resorption-2: in vivo urinary [3H] tetracycline excretion in mice with hyper-resorption induced by calcium-deficient diet; conditions: calcium-deficient diet (0.4%)
Experimental: In vivo study according to the measurement method described by Konig, Muhlbauer and Fleisch ("Tumor necrosis factor and interleukine-1 stimulate bone resorption in vivo as measured by urinary [^3 H] tetracycline excretion from prelabeled mice", J. Bone Min. Res., 3, (1988), 621-627). A study was carried out on mice in which a state of hyper-resorption had been induced by a calcium-deficient diet (0.4%).

[5] = tested on: mouse calvaria; test: Formation of osteoid tissue: incorporation of tritiated proline into bone tissue of mouse calvaria; format: cell-based; conditions: read-out: Stimulation of formation
Text: An effect promoting the formation of osteoid tissue (incorporation of tritiated proline from the medium into the bone tissue of mouse calvaria) has also been observed with some compounds: […]

| SMILES | pIC50 [1] | pIC50 [2] | also measured |
| --- | --- | --- | --- |
| O=C(O)/C=C/C=C/C=C/C1=Cc2cc(Cl)cc(Cl)c2OC1 [Example 20, (2E,4E,6E)-7-(6,8-Dichloro-2H-chromen-3-yl) hepta-2,4,6-trienoic acid] | 5.10 | 4.52 | – |
| Cc1cc(Cl)cc2c1OCC(/C=C/C=C/C=C/C(=O)O)=C2 [Example 15, (2E,4E,6E)-7-(6-Chloro-8-methyl-2H-chromen-3-yl)hepta-2,4,6-trienoic acid] | 5.00 | 4.30 | – |
| Cc1cc(Cl)c2c(c1)C=C(/C=C/C=C/C=C/C(=O)O)CO2 [Example 14, (2E,4E,6E)-7-(6-Methyl-8-chloro-2H-chromen-3-yl)hepta-2,4,6-trienoic acid] | 4.70 | 4.30 | – |
| Cc1cc(Cl)cc2c1OC(C)(C)C(/C=C/C=C/C=C/C(=O)O)=C2 [Example 19, (2E,4E,6E)-7-(2,2,8-Trimethyl-6-chloro-2H-chromen-3-yl)hepta-2,4,6-trienoic acid] | 4.52 | 4.30 | – |
| CCOC(=O)/C=C(C)/C=C/C=C(\C)C1=Cc2cc(C(C)(C)C)ccc2OC1 [Example 33, Ethyl (2E,4E,6E)-7-(6-tert.-butyl-2H-chromen-3-yl)-3-methylocta-2,4,6-trienoate] | – | – | inhibition at 10 µM [3]: 3% |
| CCOC(=O)/C=C(C)/C=C/C=C(C)/C=C/c1c(C)cc(OC)c(C)c1C [Etretinate, reference compound] | – | – | Effect on hyper-resorption / urinary excretion of tritiated tetracycline (in words) [4]: tends to increase the urinary excretion of tritiated tetracycline; % variation in urinary [3H] tetracycline excretion ([4]; oral dose 50 mg/kg): +11%; % variation in urinary [3H] tetracycline excretion ([4]; oral dose 100 mg/kg): +3%; inhibition at 50 µM [3]: 11% |
| Cc1cc(C)c2c(c1)C=C(/C=C/C=C/C=C/C(=O)O)C(C)(C)O2 [Example 18, (2E,4E,6E)-7-(2,2,6,8-Tetramethyl-2H-chromen-3-yl)hepta-2,4,6-trienoic acid] | 4.52 | 4.52 | – |
| CC(C)(C)c1ccc2c(c1)C=C(/C=C/C=C/C=C/C(=O)O)CO2 [Example 6, (2E,4E,6E)-7-(6-Tert.-butyl-2H-chromen-3-yl) hepta-2,4,6-trienoic acid] | 5.05 | 5.00 | – |
| Cc1cc(C)c2c(c1)C=C(/C=C/C=C/C=C\C(=O)O)CO2 [Example 2, (2Z,4E,6E)-7-(6,8-Dimethyl-2H-chromen-3-yl) hepta-2,4,6-trienoicacid] | – | – | % variation in urinary [3H] tetracycline excretion ([4]; oral dose 50 mg/kg): -10%; % variation in urinary [3H] tetracycline excretion ([4]; oral dose 100 mg/kg): -10%; % variation in urinary [3H] tetracycline excretion ([4]; oral dose 200 mg/kg): -12% |

Continued, in another order:

| pIC50 [1] | pIC50 [2] | SMILES | also measured |
| --- | --- | --- | --- |
| 5.40 | – | CC(/C=C/C=C(\C)C1=Cc2cc(C(C)(C)C)ccc2OC1)=C\C(=O)O [Example 41, (2E,4E,6E)-7-(6-Tert.-butyl-2H-chromen-3-yl)-3-methylocta-2,4,6-trienoic acid] | – |
| 5.52 | 5.30 | CC(C)(C)c1cc2c(c(C(C)(C)C)c1)OCC(/C=C/C=C/C=C/C(=O)O)=C2 [Example 13, (2E,4E,6E)-7-(6,8-Ditert.-butyl-2H-chromen-3-yl)hepta-2,4,6-trienoic acid] | – |
| 5.12 | – | CCOC(=O)\C=C(C)/C=C/C=C(\C)C1=Cc2cc(-c3ccccc3)ccc2OC1 [Example 27] | inhibition at 10 µM [3]: 11% |
| 5.12 | 4.52 | CC(C)c1ccc2c(c1)C=C(/C=C/C=C/C=C/C(=O)O)CO2 [Example 5, (2E,4E,6E)-7-(6-Isopropyl-2H-chromen-3-yl) hepta-2,4,6-trienoic acid] | – |
| 5.30 | – | CCOC(=O)/C=C(C)/C=C/C=C(\C)C1=Cc2cc(C)cc(C)c2OC1 [Example 35, Ethyl (2E,4E,6E)-7-(6,8-dimethyl-2H-chromen-3-yl)-3-methylocta-2,4,6-trienoate] | activation at 10 µM [5]: 11%; inhibition at 10 µM [3]: 15%; inhibition at 50 µM [3]: 32%; inhibition at 7.5 µM ([3]; parathormone (PTH) 500 ng/ml, read-out: Hyper-resorption with PTH): 12%; inhibition at 7.5 µM ([3]; retinoic acid, read-out: Hyper-resorption with retinoic acid): 9% |
| 5.30 | – | CCOC(=O)/C=C(C)/C=C/C=C(\C)C1=Cc2cc(-c3ccccc3)ccc2OC1 [Example 25, Ethyl (2E,4E,6E)-3-methyl-7-(6-phenyl-2-H-chromen-3-yl)octa-2,4,6-trienoate] | inhibition at 50 µM [3]: 15% |
| 5.22 | 5.30 | Cc1cc2c(c(C(C)(C)C)c1)OCC(/C=C/C=C/C=C/C(=O)O)=C2 [Example 11, (2E,4E,6E)-7-(6-Methyl-8-tert.-butyl-2H-chromen-3-yl)hepta-2,4,6-trienoic acid] | – |
| 5.12 | – | CCOC(=O)/C=C(C)/C=C/C=C(\C)C1=Cc2cc(C)ccc2OC1 [Example 32, Ethyl (2E,4E,6E)-7-(6-methyl-2H-chromen-3-yl)-3-methylocta-2,4,6-trienoate] | inhibition at 10 µM [3]: 14%; inhibition at 50 µM [3]: 12% |
| 5.30 | – | CC(/C=C/C=C(\C)C1=Cc2cc(-c3ccccc3)ccc2OC1)=C\C(=O)O [Example 26, (2E,4E,6E)-3-Methyl-7-(6-phenyl-2H-chromen-3-yl)octa-2,4,6-trienoic acid] | activation at 10 µM [5]: 7%; inhibition at 10 µM [3]: 11%; inhibition at 50 µM [3]: 29% |
| 5.30 | – | CCOC(=O)/C=C(C)/C=C/C=C(\C)C1=Cc2cc(C(C)(C)C)cc(C)c2OC1 [Example 36, Ethyl (2E,4E,6E)-7-(6-tert.-butyl-8-methyl-2H-chromen-3-yl)-3-methylocta-2,4,6-trienoate] | – |
